{
  "source": "patent US6803195B1",
  "about": "“Facile detection of cancer and cancer risk based on level of coordination between alleles” (Ramot At Tel-Aviv University Ltd., priority 1999, dated 2004)",
  "assay_type_in_all_cases": "cell-based, human",
  "key": {"[1]": {"system": "PHA-stimulated lymphocytes, chromosome 21, 13, 17 and 15", "experiment": "FISH analysis of chromosome losses and gains with and without 5-azacytidine (Example 6)", "settings": "cancerous samples 1-15, presence vs absence of AZA", "procedure": "(§1) Each subject donated five ml of peripheral blood. Cell cultures of PHA-stimulated lymphocytes were set up according to standard protocol (Rooney and Czepulkowsli, 1992). Briefly, 0.5 ml of peripheral blood was introduced into a 15 ml test tube containing 5ml F-10 medium supplemented with 20% fetal calf serum, 0.2% heparin, 1% penicillin/streptomycin antibiotic solution (Biological industries, Israel) and 3% phytohemagglutinin (PHA). In addition, all the 15 samples derived from the hematological patients (samples 1-15) and 15 of the 41 samples derived from non-cancerous subjects (samples 16-30) were also grown in the presence of 10^−7M 5-azacytidine (AZA; Sigman, USA) added to the other ingredients described above.\nFor the analyses of chromosome losses and gains, at least 200 cells following one-color FISH with each of the chromosome enumerating probes (AML1, RB1, CEN17 and CEN15) were scored for each tested sample, employing the same preparation used for evaluating allelic replication timing. The frequency of cells containing a single signal was used to evaluate the extent of chromosome losses and the frequency of cells with three or more signals were used to assess the level of chromosome gains.\nThe mean SD value of five loci (TP53, AML1, RB1, CEN17 and CEN15) and the mean losses and gains value of four loci (AML1, RB1, CEN17 and CEN15) represent each sample. […]"}, "[2]": {"system": "PHA-stimulated lymphocytes of patients suffering from a hematological malignancy", "experiment": "FISH replication assay, lymphocytes of hematological cancer patients grown with 5-azacytidine (Example 6)", "settings": "for percentage of SD cells following exposure to AZA, mean value: patients' samples 1-15, 72 hours, mean ± standard deviation", "procedure": "as §1\nAfter 72 hours at 37° C., colchicine (Sigma, USA) was added to each sample (final concentration of 5×10^−7M for one hour) followed by hypotonic treatment (0.075 M KC1 at 37° C. for 15 minutes) and four washes, each with a fresh cold (−20° C.) 3:1 solution of methanol: acetic acid. The cell suspensions were stored at −20° C. until used for FISH.\nSix diverse loci were tested using directly labeled commercial probes obtained from Vysis: (i) the SNRPN probe (32-190004); (ii) the TP53 probe (32-190006); (iii) the AML1 probe (LSI 21; 32-190002); (iv) the RB1 probe (LSI 13; 32-190001); (v) the α-satellite probe specific for centromere 17 (32-130017, hereafter marked as CEN17); and (vi) the satellite III probe specific for centromere 15 (32-1300015, hereafter marked as CEN15). The SNRPN probe identifies the Prader-Willi/Angelman syndrome region on 15q11-13 and is the most well characterized imprinted region in man (Ozoelik et al 1992). The TP53 probe identifies the p53 gene mapped to […] and is a tumor suppressor gene whose deletion and/or inactivation is implicated in over 50% of all human tumors (Prokocimer et al 1998). The AML1 probe recognizes a gene mapped to chromosome 21q22, which is one of the most frequently translocated genes in human blood malignancy (Look 1997). […] It is located on chromosome 13q14, and encodes the retinoblastoma protein. Both centromere specific probes (CEN17 and CEN15) identify non-coding loci implicated with chromosomal segregation and stability and are usually used for the enumeration of chromosome 17 and 15, respectively. Also the AML1 and RB1 probes, although not identifying centromeric regions, were both approved by the FDA to replace centromere specific probes for the enumeration of chromosomes 21 and 13, respectively.\nA standard protocol was followed, as recommended by Ingen Laboratories (currently Insitus Biotechnologies), with few minor changes. Probes were diluted in Ingen's DenHyb solutions D001 to 400 folds (CEN17 and CEN15) and in D003 to 100 fold (AML1; RB1) or 50 fold (TP53; SNRPN) instead of the hybridization solution supplied with the probe. Five μl of the probe solution was placed on the targeted area of the sample slides and covered with a 12 mm round silanized coverslip (Ingen laboratories, USA) at 76° C. and denatured for six minutes at that temperature. The slide-filled aluminum slide tray was then transferred into an HybBox (Ingen Laboratories, USA), covered and allowed to hybridize overnight in the box.\nAll samples obtained from the cancerous patients (samples 1-15) were analyzed with each of the six probes used, each in the absence as well as in the presence of AZA. Out of the non-cancerous samples grown without AZA 41 (samples 16-56) were analyzed with the AML1 and TP53 probes, 30 (samples 16-45) with the CEN17 probe and 15 (samples 16-30) with each of the other three probes (SNRPN, RB1 and CEN15).\nSlides were analyzed blindly on an Olympus BH2 fluorescent microscope, using a triple band-pass filter (Chroma technology). For the replication assay (Boogs and Chinault, 1997) at least 100 cells, containing two well-defined hybridization signals were scored from each sample, for each probe and for each treatment, following one-color FISH. […]"}, "[3]": {"system": "CON samples (healthy individuals)", "experiment": "FISH replication assay, cultures of healthy individuals (CON) with chromatin modifiers (Example 10)", "settings": "for frequency (%) of SD cells, Mean: CON + AZA (10^-7M), N = 20", "from_the_text": "(§2) Cultures were set up from 44 healthy individuals (hereafter called CON) and 20 hematological malignancy patients at diagnosis (hereafter termed CAD). For 20 of the CON samples and all of the CAD samples peripheral in addition to the setting up cultures in the regular growth medium, cultures were set up in medium containing 5-azacytidine (10^−7M; Sigma, USA; hereafter referred to as AZA) a demethylating agent. In addition, cultures from 6 CON and 10 CAD samples were set up in medium containing a deacetylating agents, either Trichostatin A (33 nM; Sigma, USA; hereafter referred to as TSA) or Sodium Butirate (1 nM; Sigma, USA; hereafter referred to as NB), two well described acetylating agents.\n(§3) These samples were hybridized with two commercial probes: the AML1 probe (LSI 21, […]) and the α-satellite probe specific for centromere 17 (32-130017, hereafter marked as CEN17). The results are summarized in Table 1 giving the number of samples hybridized with each probe (N), Mean and standard deviation (stdev) as well as the p value obtained using two tailed student's t-test (Microsoft Office 98)."}, "[4]": {"system": "CAD samples (hematological malignancy patients at diagnosis)", "experiment": "FISH replication assay, cultures of hematological malignancy patients (CAD) with chromatin modifiers (Example 10)", "settings": "for frequency (%) of SD cells, Mean: CAD + AZA (10^-7M), N = 20", "from_the_text": "as §2, §3"}, "[5]": {"settings": "cultured cells with chromatin modifier"}},
  "data": [
    {"smiles": "Nc1ncn([C@@H]2O[C@H](CO)[C@@H](O)[C@H]2O)c(=O)n1", "note": "[AZA, 5-azacytidine]", "values": [
      {"measurement": "losses and gains values (mean of AML1, RB1, CEN17 and CEN15)", "setting": "[1]", "value": "unchanged"},
      {"measurement": "percentage of SD cells following exposure to AZA, mean value", "setting": "[2]; AML1 locus, 10^-7M AZA", "value": "25.3±3.7", "unit": "%"},
      {"measurement": "percentage of SD cells following exposure to AZA, mean value", "setting": "[2]; CEN15 locus, 10^-7M AZA", "value": "21.9±2.3", "unit": "%"},
      {"measurement": "percentage of SD cells following exposure to AZA, mean value", "setting": "[2]; CEN17 locus, 10^-7M AZA", "value": "22.7±3.4", "unit": "%"},
      {"measurement": "percentage of SD cells following exposure to AZA, mean value", "setting": "[2]; RB1 locus, 10^-7M AZA", "value": "22.4±2.5", "unit": "%"},
      {"measurement": "percentage of SD cells following exposure to AZA, range", "setting": "[2]; TP53, AML1, RB1, CEN17 and CEN15, patients' samples, 10^-7M AZA", "value": "15-28%"},
      {"measurement": "percentage of SD cells following exposure to AZA, mean value", "setting": "[2]; TP53 locus, 10^-7M AZA", "value": "21.7±4.4", "unit": "%"},
      {"measurement": "cancer-induced allele-specific replication", "setting": "[2]; all five loci tested (TP53, RB1, AML1, satellited sequences of chromosomes 15 and 17), blood cells of hematological patients", "value": "reversed to the normal"},
      {"measurement": "combined SD frequency (mean of TP53, AML1, RB1, CEN17 and CEN15) per sample, range", "setting": "[2]; patients' samples exposed to AZA", "value": "19.8-26.2%"},
      {"measurement": "frequency (%) of SD cells, Mean", "setting": "[3]; AML1 locus", "value": "Mean = 21.5%"},
      {"measurement": "frequency (%) of SD cells, Mean", "setting": "[3]; CEN17 locus", "value": "Mean = 20.9%"},
      {"measurement": "replication pattern observed in normal genomes", "setting": "[3]; [5]", "value": "not affecting"},
      {"measurement": "frequency (%) of SD cells, Mean", "setting": "[4]; AML1 locus", "value": "Mean = 25.3%"},
      {"measurement": "frequency (%) of SD cells, Mean", "setting": "[4]; CEN17 locus", "value": "Mean = 22.7%"},
      {"measurement": "replication pattern in cells derived from cancer patients", "setting": "[4]; [5]", "value": "attenuate the replication pattern presented in cells derived from cancer patients towards the normal"}
    ]}
  ]
}
